Assay results taken from ChEMBL document CHEMBL1152852, “Substituted benzo[d]oxazol-2(3H)-one derivatives with preference for the sigma1 binding site” (Eur J Med Chem, 2009).

Experiments:
[1] = Displacement of [3H]DTG from sigma 2 receptor in rat liver membrane; assay type: cell membranes
Rattus norvegicus = organism: Rattus norvegicus; assay: Selectivity ratio of Ki for rat liver sigma 2 receptor to Ki for rat liver sigma 1 receptor
[2] = target: Sigma non-opioid intracellular receptor 1 (Rattus norvegicus, UniProt Q9R0C9); assay: Displacement of [3H](+)-pentazocine from sigma 1 receptor in rat liver membrane; assay type: cell membranes
Sequence of Sigma non-opioid intracellular receptor 1 (Q9R0C9 whole entry): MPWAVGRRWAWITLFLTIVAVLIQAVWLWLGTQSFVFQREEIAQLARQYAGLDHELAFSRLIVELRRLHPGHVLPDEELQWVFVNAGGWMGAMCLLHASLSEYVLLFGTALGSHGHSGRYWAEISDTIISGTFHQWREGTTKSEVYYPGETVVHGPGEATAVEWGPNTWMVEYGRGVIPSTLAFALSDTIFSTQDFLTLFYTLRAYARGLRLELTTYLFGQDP

Compound	Ki [1]	Ratio Ki (Rattus norvegicus)	Ki [2]
O=c1oc2ccccc2n1CC1CCN(Cc2cccc3ccccc23)CC1	1290 nM		
Cc1ccccc1CN1CCC(Cn2c(=O)oc3ccccc32)CC1	338 nM	10	33 nM
O=c1oc2ccccc2n1CC1CCN(Cc2ccccc2)CC1	246 nM		
O=c1oc2ccccc2n1CC1CCN(Cc2ccccc2F)CC1	213 nM	9	23 nM
O=c1oc2ccccc2n1CC1CCN(Cc2ccc(Cl)cc2)CC1	427 nM		
Cc1ccc(CN(C)CCCCc2cn(-c3ccc(F)cc3)c3ccccc23)c(C)c1	5.9 nM	0.05	
Cc1ccccc1NC(=N)Nc1ccccc1C [DITOLYLGUANIDINE]	130 nM		
Cc1ccc(CN2CCC(Cn3c(=O)oc4ccccc43)CC2)c(C)c1	187 nM	6	30 nM
CC(C)=CCN1CC[C@]2(C)c3cc(O)ccc3C[C@H]1[C@H]2C [(+)-PENTAZOCINE]	327 nM		
Cc1ccc(CN2CCC(Cn3c(=O)oc4ccccc43)CC2)cc1	116 nM	40	2.9 nM
CN(CCCc1cn(-c2ccc(F)cc2)c2ccccc12)Cc1ccccc1	5.9 nM	22	
O=c1oc2ccccc2n1CC1CCN(Cc2ccc(F)cc2)CC1	170 nM	44	3.9 nM
O=c1oc2ccccc2n1CC1CCN(Cc2ccccc2Cl)CC1	299 nM		
O=c1oc2ccccc2n1CC1CCN(Cc2ccc(Cl)cc2Cl)CC1	382 nM	1.5	258 nM
O=c1oc2ccccc2n1CC1CCN(Cc2ccc(-c3ccccc3)cc2)CC1	> 10000 nM	> 25	394 nM
O=C(CCCN1CCC(O)(c2ccc(Cl)cc2)CC1)c1ccc(F)cc1 [HALOPERIDOL]	235 nM		
Cc1cc(C)c(CN2CCC(Cn3c(=O)oc4ccccc43)CC2)c(C)c1	2880 nM	0.5	6230 nM
CCC(=O)c1ccc2c(c1)oc(=O)n2CCCN1CCCCC1	8.5 nM	58	
